Key:
[1] = target: T1, peripheral-type benzodiazepine receptor (PBR) in Y-1 cells (Mus musculus, UniProt P50637); assay: [3H]PK 11195 binding in Y-1 adrenocortical cells; settings: 37° C.; for rank order of compound displacement potency against [3H]PK 11195 binding: FIG. 2a
T1 construct: Y-1 cell cultures were scraped from the flasks; host or cells: Y-1 mouse adrenal tumor cells
Experimental: (§1) Cells--The Y-1 adrenal mouse tumor cell line used in these studies was obtained from the American Type Culture Collection (ATCC #CCL 79). Stock cultures were grown in modified Waymouth's MB752/l medium containing 20 mM HEPES, 1.2 g/l NaHCO3, 15% horse serum and 2.5% fetal calf serum, pH 7.4. Before use the cells were washed three times at 30 min intervals, with serum-free media in order to eliminate serum components that may interfere with the assays and were incubated for the indicated time periods in the presence of the drugs under investigation. Bovine fasciculata-reticularis and adrenocortical cells from adult (300 g) Sprague-Dawley rats were prepared as previously described by Yanagibashi et al, (1989) Endocrinology 124; 2838-2391.
Radioligand binding assays--Y-1 cell cultures were scraped from the flasks ([…]) in 5 ml of Kreb's buffer, dispersed by repetitive pipetting, and centrifuged at 1,200 × g for 5 min. The cell pellets were resuspended in Kreb's buffer and larger cellular aggregates were allowed to settle for 5 min. The finely dispersed cell suspensions were taken for further experimentation.
Binding assays were performed in a total volume of 250-400 ul of Kreb's buffer containing [^3 H]PK 11195 (0.07-20 nM) with 5 ug of cellular protein. Incubations were conducted at 37° C. for 30 min and bound radioligand was measured by filtration through Whatman GF/C filters followed by four rapid 5 ml washes with 25 mM Tris-HCl (pH 7.4) containing 1 uM PK 11195. Filters were subjected to liquid scintillation counting. Nonspecific binding was measured in the presence (of 10 uM nonradioactive PK 11195.

[2] = tested on: MA-10 Leydig cells; assay: Progesterone production in MA-10 Leydig cells; type: cell-based, mouse; settings: MA-10 cells, 4 hours incubation
Experimental: (§2) Cells--The MA-10 cell line originally cloned from the solid M5480P mouse Leydig cell tumor used in these experiments was obtained from Dr. Mario Ascoli (The Population Council, Rockefeller University, N.Y.). Stock cultures were grown in modified Waymouth's MB752/1 medium containing 20 mM HEPES, 1.2 g/l NaHCO3 and 15% horse serum, pH 7.4 as described by Ascoli (1981) Endocrinology 108, 88-95. Before use, the MA-10 Leydig cells were washed three times, in 30 min intervals, with serum-free media in order to eliminate serum components that may interfere with the assays and incubated for the indicated periods of time in the presence of the indicated substances. Testicular interstitial cells were prepared by enzymatic dissociation of testes obtained from adult Sprague-Dawley (300 g) rats. This preparation contained 20-30% 3β-hydroxysteroid dehydrogenase positive cells (Leydig cells). Leydig cells were further purified using discontinuous Percoll gradient centrifugation as described by Papadopoulos et al., 1985 FEBS Letters 188, 312-316. The preparations obtained contained 75-85% Leydig cells as shown by the histochemical staining for 3β-hydroxysteroid dehydrogenase by the procedure of Papadopoulos et al., FEBS Letters 188, supra. [^3 H]PK 11195 binding assays--Cells were scraped from 75 cm^2 culture flasks into 5 ml of Kreb's buffer, dispersed by trituration, and centrifuged at 1,200 × g for 5 min. The cell pellets were resuspended in buffer and larger cell aggregates were allowed to settle to the bottom of the tube before the cell suspension was retrieved for experimentation.
Steroid Biosynthesis--These experiments were performed with the MA-10 Leydig cells plated in 12×22 mm wells and incubated for the times shown and in the presence of the indicated substances at a final volume of 1 ml of serum-free media at 37° C. […]
Progesterone and 20-γ-hydroxyprogesterone production for the MA-10 cells, and testosterone accumulation for the rat Leydig cells were measured by means of radioimmunoassay. […]

[3] = tested on: purified rat Leydig cells; assay: Testosterone production by purified rat Leydig cells, basal and hCG stimulated; settings: for Testosterone, No Additions / stimulation of testosterone production / effect on testosterone production (in words): basal; for Testosterone, No Additions / Testosterone, hCG (50 ng/ml): 4 hours at 32° C., mean ± S.D. n = 3; for Testosterone, No Additions: control 1.30 ± 0.20; for Testosterone, hCG (50 ng/ml): control 15.13 ± 2.05; for stimulation of testosterone production / effect on testosterone production (in words): purified rat Leydig cells; for stimulation of testosterone production: 240 min
[4] = Serum testosterone after intravenous alpidem in rats (dosing studies); type: in vivo; settings: adult Sprague-Dawley rats
Experimental: Alpidem was suspended in isotonic saline by sonication and administered intravenously to adult Sprague-Dawley rats (200-300 g). The doses used ranged from 0.01-1.5 mg/kg, the highest concentration being just below the level needed for behavioral effects to be observed. Control rats were injected with saline alone to serve as control for measurement of basal serum levels of testosterone. After specific times the rats were killed by decapitation and blood was collected. Serum was prepared and testosterone was measured by radioimmunoassay. Each point included three rats for all permutations of each time point and concentration of alpidem used.

[5] = target: T2, PBR in MA-10 cells (Mus musculus, UniProt P50637); assay: [3H]PK 11195 binding in MA-10 Leydig cells; settings: 37° C.
T2 construct: endogenous in cells; host or cells: MA-10 mouse Leydig tumor cells (from Dr. Mario Ascoli)
T2 sequence (P50637 whole entry): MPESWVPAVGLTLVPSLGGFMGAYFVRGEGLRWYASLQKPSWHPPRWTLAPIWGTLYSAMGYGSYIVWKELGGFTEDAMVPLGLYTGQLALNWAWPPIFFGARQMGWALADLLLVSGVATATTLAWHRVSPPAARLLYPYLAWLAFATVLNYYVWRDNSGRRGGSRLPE
Experimental: as §2
[^3 H]PK 11195 binding studies on 5 ug of protein from the cell suspensions were performed in 250-400μl of Kreb's buffer at 37° C., essentially the same conditions under which the
effects of the compounds on steroidogenesis were studied. Nonspecific binding was determined in the presence of 10 μM PK 11195. […] Radioactivity trapped on the filters was determined by liquid scintillation counting. […]

[6] = tested on: Y-1 adrenocortical cells; assay: Steroid (20-hydroxyprogesterone) secretion in Y-1 cells; type: cell-based, mouse
Experimental: as §1
Measurement of steroid production--These experiments were performed with the Y-1 cells plated in 12--22 mm wells and incubated for the times shown at a final volume of 1 ml of serum-free media at 37° C. […] Steroid production was determined by measuring 20-γ-hydroxyprogesterone, the main steroid product of these cells, using a radioimmunoassay with an antibody donated by Dr. G. Nieswender (Univ. of Colorado, Fort Collins), under the process described in Kowal J. (1970), Recent Progress in Hormone Research 26, 623-687 and Schimmer B.P. (1981) in Functionally Differentiated Cell Lines, ed. […]

[7] = read-out: dissociation constant (Scatchard analysis)

T1 sequence (P50637 whole entry): as above

For `CC(Cc1cc(-c2ccccc2)nc2ccccc12)C(=O)N(C)C` (single isomer, unassigned; (-)) [PK 14067, (-) N,N-dimethyl-x-methyl-2-phenyl-4-quinoline propanamide], which “rank order of compound displacement potency against [3H]PK 11195 binding” value (“rank order” for short) [1] is on record?
The value was “alpidem>PK 11195>PK 14067>4'-chlorodiazepam>zolpidem>PK 14608, diazepam>flunitrazepam>clonazepam>flumazenil”.

And the “stimulation of progesterone production” value [2]?
Its value is 3 to 4 fold.

What about the “Testosterone, No Additions” value ([3]; compound 10^-6 M) of the same compound?
Its value is 2.20 ± 0.30 ng/10^5 cel s/4 hours.

And the “Testosterone, hCG (50 ng/ml)” value ([3]; compound 10^-6 M)?
The value was 14.13 ± 1.49 ng/10^5 cel s/4 hours.

Which “time for which elevated testosterone levels were maintained” value [4] does the source give for `CCCN(CCC)C(=O)Cc1c(-c2ccc(Cl)cc2)nc2ccc(Cl)cn12` [alpidem] here?
The value was “at least 4 hours”.

What about the “increase in serum testosterone levels” value ([4]; doses greater than or equal to 0.01 mg/kg) of the same compound?
Its value is 2-4 times above control levels.

What about the “rank order” value [1] of the same compound?
The value was “alpidem>PK 11195>PK 14067>4'-chlorodiazepam>zolpidem>PK 14608, diazepam>flunitrazepam>clonazepam>flumazenil”.

What about the “stimulation of progesterone production” value [2] of the same compound?
Its value is 3 to 4 fold.

What about the “Testosterone, No Additions” value ([3]; compound 10^-7 M) of the same compound?
Its value is 2.35 ± 0.27 ng/10^5 cel s/4 hours.

What about the “Testosterone, hCG (50 ng/ml)” value ([3]; compound 10^-7 M) of the same compound?
The value was 15.02 ± 2.31 ng/10^5 cel s/4 hours.

And the “stimulation of testosterone production” value [3]?
Its value is “about 2 fold”.

For `Cc1ccc(-c2nc3ccc(C)cn3c2CC(=O)N(C)C)cc1` [zolpidem], which “rank order” value [1] is on record?
The value was “alpidem>PK 11195>PK 14067>4'-chlorodiazepam>zolpidem>PK 14608, diazepam>flunitrazepam>clonazepam>flumazenil”.

For `CN1C(=O)CN=C(c2ccccc2F)c2cc([N+](=O)[O-])ccc21` [flunitrazepam], which “rank order” value [1] is on record?
The value was “alpidem>PK 11195>PK 14067>4'-chlorodiazepam>zolpidem>PK 14608, diazepam>flunitrazepam>clonazepam>flumazenil”.

With `CCC(C)N(C)C(=O)c1cc2ccccc2c(-c2ccccc2Cl)n1` (stereo not drawn) [PK 11195, 1-(2-chlorophenyl)-N-methyl-N-(l-methylpropyl)-3-isoquinoline carboxamide] as the compound, how does the Bmax [1] read?
Its Bmax is 54 pmol/mg of protein.

What about the “time to reach binding equilibrium” value [1] of the same compound?
Its value is at most 15 min.

What about the “rank order” value [1] of the same compound?
Its value is “alpidem>PK 11195>PK 14067>4'-chlorodiazepam>zolpidem>PK 14608, diazepam>flunitrazepam>clonazepam>flumazenil”.

And the Kd [1, 7]?
Its Kd is 1.8 nM.

And the “density of binding sites” value [5]?
Its value is 56 pmol/mg of protein.

And the “time to reach steady-state specific binding” value [5]?
Its value is 10 min.

And the Kd [5, 7]?
The Kd was 1.8 nM.

What about the “stimulation of progesterone production” value [2] of the same compound?
Its value is 3 to 4 fold.

And the “Testosterone, No Additions” value ([3]; compound 10^-6 M)?
Its value is 2.33 ± 0.21 ng/10^5 cel s/4 hours.

What about the “Testosterone, hCG (50 ng/ml)” value ([3]; compound 10^-6 M) of the same compound?
Its value is 14.86 ± 1.51 ng/10^5 cel s/4 hours.

And the “stimulation of testosterone production” value [3]?
Its value is “about 2 fold”.

For `CC(Cc1cc(-c2ccccc2)nc2ccccc12)C(=O)N(C)C` (single isomer, unassigned; (+)) [PK 14068, (+) N,N-dimethyl-x-methyl-2-phenyl-4-quinoline propanamide], which “rank order” value [1] is on record?
Its value is “alpidem>PK 11195>PK 14067>4'-chlorodiazepam>zolpidem>PK 14608, diazepam>flunitrazepam>clonazepam>flumazenil”.

And the “Testosterone, No Additions” value ([3]; compound 10^-5 M)?
Its value is 1.16 ± 0.15 ng/10^5 cel s/4 hours.

And the “Testosterone, hCG (50 ng/ml)” value ([3]; compound 10^-5 M)?
The value was 13.50 ± 1.51 ng/10^5 cel s/4 hours.

With `O=C1CN=C(c2ccccc2Cl)c2cc([N+](=O)[O-])ccc2N1` [clonazepam] as the compound, how does the “rank order” value [1] read?
Its value is “alpidem>PK 11195>PK 14067>4'-chlorodiazepam>zolpidem>PK 14608, diazepam>flunitrazepam>clonazepam>flumazenil”.

And the “effect on steroid production (in words)” value [6]?
The value was “failed to stimulate steroid production”.

What about the “Testosterone, No Additions” value ([3]; compound 10^-5 M) of the same compound?
Its value is 1.16 ± 0.11 ng/10^5 cel s/4 hours.

What about the “Testosterone, hCG (50 ng/ml)” value ([3]; compound 10^-5 M) of the same compound?
Its value is 14.90 ± 2.22 ng/10^5 cel s/4 hours.

What about the “effect on testosterone production (in words)” value [3] of the same compound?
The value was “no effect”.

With `CN1C(=O)CN=C(c2ccccc2)c2cc(Cl)ccc21` [diazepam] as the compound, how does the “rank order” value [1] read?
Its value is “alpidem>PK 11195>PK 14067>4'-chlorodiazepam>zolpidem>PK 14608, diazepam>flunitrazepam>clonazepam>flumazenil”.

What about the “Testosterone, No Additions” value ([3]; compound 10^-5 M) of the same compound?
The value was 1.90 ± 0.10 ng/10^5 cel s/4 hours.

What about the “Testosterone, hCG (50 ng/ml)” value ([3]; compound 10^-5 M) of the same compound?
The value was 14.96 ± 3.09 ng/10^5 cel s/4 hours.

And the “effect on testosterone production (in words)” value [3]?
The value was “less potent”.

Which results are given for `CCOC(=O)c1ncn2c1CN(C)C(=O)c1cc(F)ccc1-2` [flumazenil]?
rank order of compound displacement potency against [3H]PK 11195 binding [1]: alpidem>PK 11195>PK 14067>4'-chlorodiazepam>zolpidem>PK 14608, diazepam>flunitrazepam>clonazepam>flumazenil; effect on steroid production (in words) [6]: failed to stimulate steroid production

Source: patent US5032595A, “Method of stimulating steroidogenesis with alpidem” (FIDIA-Georgetown Institute for the Neurosciences, priority 1989, dated 1991)
